According to patent US20230414626A1, “INDUCTION OF FERROPTOSIS FOR CANCER THERAPY” (Memorial Sloan Kettering Cancer Center, priority 2020, published 2023):

System: PTEN-defective PC-3 prostate cancer xenograft tumors
Assay: In vivo xenograft mouse model, PC-3
Conditions: PC-3 xenograft, nu/nu mice; IKE 50 mg/kg daily i.p.; CCI-779 2 mg/kg daily i.p.
Description: FIG. 6 A-F. Combination of mTORC1 inhibition with ferroptosis induction leads to tumor regression in vivo. (A) CRISPR/Cas9-mediated, Dox-induced GPX4 knockout (GPX4-iKO) in BT474 cells, monitored by western blot. (B) Images of resected tumors from mice xenografted with GPX4-iKO BT474 cells. Groups of mice were treated with CCI-779 and/or Dox as indicated (n=6 per group). See Methods for detail. (C) Representative haematoxylin and eosin (H&E) and immunostaining images of GPX4, Ki67, PTGS2 and pS235/236 S6, all counterstained with haematoxylin (blue), are shown from sections of xenografted tumors. Scale bar, 50 μm. (D) Growth curves of BT474 tumors of each group. Data are plotted as mean±s.d., n=6, on the linear scale for actual tumor size (upper panel) or the log 2 scale for the fold change of tumors (bottom panel). (E) Growth curves of PC-3 tumors of each group (n=6), on the linear scale for actual tumor size (upper panel) or the log 2 scale for the fold change of tumor size (bottom panel). […]
FIG. 13 A-E. Combination of mTORC1 inhibition with ferroptosis induction leads to tumor regression. […] (B) BT474 tumor volume was measured every day for each mouse. […] (E) PC-3 tumor volume was measured every day for each mouse. […]
For PC-3 tumor models, male athymic nu/nu mice aged 5 to 6 weeks were injected in the right flank with 5×10^6 PC-3 cells. Tumors were measured with callipers daily. […]

Question: Which tumor growth does the source give for `CC(C)Oc1ccc(C(=O)Cn2ccnc2)cc1-n1c(CN2CCN(C(=O)COc3ccc(Cl)cc3)CC2)nc2ccccc2c1=O` [IKE, imidazole ketone erastin] here?
Answer: no effects on tumor growth
